# Results as given in patent US5190741A, “Agents for diagnosing and treating melanomas, aromatic halogenated derivatives usable as such agents and their preparation” (Institut National de la Sante et de la Recherche Medicale …, priority 1989, dated 1993).
# Like-named read-outs stand apart in the source and are kept apart here.
# Experiments:
# [1] = Tissue distribution in Swiss nu/nu SSCUP mice bearing Dau; type: in vivo, human; conditions: mouse, iv, 3 umol/animal
# Method: The study of the tissue distribution of the ^125 I labelled compounds was performed in mice bearing grafted melanomas (cf. autoradiograms above). […] The animals are sacrificed at different time intervals of 1 to 24 hours after the injection. The blood is collected and the principal organs are excised. Aliquots are weighed and the radioactivity of the samples is measured in a […] 1191 counter (analytic tracer). The counting yield for iodine 125 is 60%. The results are expressed: as a percentage of the injected dose bound per g of tissue (% ID/g); in the form of the ratios [formula] This ratio reflects more precisely the selectivity of a molecule for an organ (tables 2, 4, 6, 8, 10 and 12).
# B16 melanoma = experiment: Scintillation imaging, C57 BL6 mice bearing B16; type: in vivo, mouse; conditions: ^123 I label
# Excerpt: The mice bearing grafted tumors are anesthetized by the i.p. injection of sodium pentobarbital 1/5 and immobilized under a scintillation camera (Gammatome II, CGR) equipped with a pinhole 3-360 collimator, sensitivity 3.2 10^-4.
# C57 BL6 bearing B16 melanomas at different stages of development.
# The scanning observations have also been carried out after the injection of B into the following mice:
# C57 BL6 bearing the B16 melanoma
# B16 murine melanoma = experiment: Autoradiograms, C57 BL6 mice bearing B16; type: in vivo, mouse
# Method: The autoradiograms are carried out in mice bearing grafted melanomas:
# a. C57 BL6 bearing the B16 murine melanoma.
# The animals bearing grafted tumors receive the labelled compounds in the form of the hydrochloride in saline solution (3.7 to 5×10^5 Bq/animal) in a caudal vein. At different time intervals after the administration of the compounds (from 15 minutes to 24 hours) the mice are anesthetized with ether and plunged into liquid nitrogen.
# 30 μm sections, parallel to a sagittal plane, are prepared in a freezing microtome (TS 260, SLEE) according to the protocol described by Ullberg.
# [2] = muscle, read-out: muscle % ID/g
# [3] = pancreas, read-out: pancreas % ID/g
# [4] = plasma, read-out: plasma % ID/g
# [5] = spleen, read-out: spleen % ID/g
# [6] = stomach, read-out: stomach % ID/g
# [7] = submaxillary glands, read-out: submaxillary glands % ID/g
compound,measurement,setting,value
"CCN(CC)CCNC(=O)c1ccc(I)cc1 [Derivative A, N-(2-diethylaminoethyl) 4-iodo benzamide]",tissue uptake at 24 h,"[1]; lungs, read-out: lungs % ID/g",0.02 %ID/g
same,tissue uptake at 1 h,[1]; [2],1.28 %ID/g
same,tissue uptake at 2 h,[1]; [2],0.79 %ID/g
same,tissue uptake at 4 h,[1]; [2],0.32 %ID/g
same,tissue uptake at 6 h,[1]; [2],0.11 %ID/g
same,tissue uptake at 24 h,[1]; [2],0.006 %ID/g
same,tissue uptake at 8 h,[1]; [2],0.07 %ID/g
same,tissue uptake at 12 h,[1]; [2],0.02 %ID/g
same,tissue uptake at 1 h,[1]; [3],4.06 %ID/g
same,tissue uptake at 2 h,[1]; [3],2.29 %ID/g
same,tissue uptake at 4 h,[1]; [3],0.97 %ID/g
same,tissue uptake at 6 h,[1]; [3],0.41 %ID/g
same,tissue uptake at 8 h,[1]; [3],0.24 %ID/g
same,tissue uptake at 12 h,[1]; [3],0.13 %ID/g
same,tissue uptake at 24 h,[1]; [3],0.03 %ID/g
same,tissue uptake at 1 h,[1]; [4],0.55 %ID/g
same,tissue uptake at 2 h,[1]; [4],0.33 %ID/g
same,tissue uptake at 4 h,[1]; [4],0.24 %ID/g
same,tissue uptake at 6 h,[1]; [4],0.24 %ID/g
same,tissue uptake at 24 h,[1]; [4],0.007 %ID/g
same,tissue uptake at 8 h,[1]; [4],0.15 %ID/g
same,tissue uptake at 12 h,[1]; [4],0.06 %ID/g
same,tissue uptake at 1 h,[1]; [5],3.48 %ID/g
same,tissue uptake at 2 h,[1]; [5],1.95 %ID/g
same,tissue uptake at 4 h,[1]; [5],0.8 %ID/g
same,tissue uptake at 6 h,[1]; [5],0.3 %ID/g
same,tissue uptake at 8 h,[1]; [5],0.16 %ID/g
same,tissue uptake at 12 h,[1]; [5],0.07 %ID/g
same,tissue uptake at 24 h,[1]; [5],0.02 %ID/g
same,tissue uptake at 1 h,[1]; [6],2.32 %ID/g
same,tissue uptake at 2 h,[1]; [6],1.85 %ID/g
same,tissue uptake at 4 h,[1]; [6],1.36 %ID/g
same,tissue uptake at 6 h,[1]; [6],1.17 %ID/g
same,tissue uptake at 8 h,[1]; [6],0.71 %ID/g
same,tissue uptake at 12 h,[1]; [6],0.38 %ID/g
same,tissue uptake at 24 h,[1]; [6],0.03 %ID/g
same,tissue uptake at 1 h,[1]; [7],4.75 %ID/g
same,tissue uptake at 2 h,[1]; [7],3.56 %ID/g
same,tissue uptake at 4 h,[1]; [7],1.5 %ID/g
same,tissue uptake at 6 h,[1]; [7],0.86 %ID/g
same,tissue uptake at 8 h,[1]; [7],0.77 %ID/g
same,tissue uptake at 12 h,[1]; [7],0.3 %ID/g
same,tissue uptake at 24 h,[1]; [7],0.02 %ID/g
same,tissue uptake at 1 h,"[1]; tumor, read-out: tumor % ID/g",1.51 %ID/g
same,tissue uptake at 2 h,"[1]; tumor, read-out: tumor % ID/g",1.29 %ID/g
same,tissue uptake at 4 h,"[1]; tumor, read-out: tumor % ID/g",0.45 %ID/g
same,tissue uptake at 6 h,"[1]; tumor, read-out: tumor % ID/g",0.23 %ID/g
same,tissue uptake at 24 h,"[1]; tumor, read-out: tumor % ID/g",0.009 %ID/g
same,tissue uptake at 8 h,"[1]; tumor, read-out: tumor % ID/g",0.11 %ID/g
same,tissue uptake at 12 h,"[1]; tumor, read-out: tumor % ID/g",0.07 %ID/g
same,tissue uptake,"[1]; tumor, only during the 2 hours following injection, Dau, read-out: intratumoral concentration",> 1 %ID/g
same,images compared with ^125 I-A,B16 melanoma,identical images
same,darkening of the film at the tumor,B16 murine melanoma; 1 to 4 h after i.v.,considerable and inhomogeneous darkening of the film
same,tumor visibility on autoradiogram,B16 murine melanoma; 24 h after i.v.,still visible
